Data published in publication PMC5967867, “An NMDAR positive and negative allosteric modulator series share a binding site and are interconverted by methyl groups” (eLife, 2018).
Several values for one entry are separate records, joined by “and”; a condition that tells them apart may be missing. Equal entries are not always repeated. Where two headings read alike, the source gives them in different places. Marks after values point to notes of the source that are not given here.

Legend:
Format in all cases: cell-based
GluN1/GluN2A NMDARs = GluN1/GluN2A NMDARs (Rattus norvegicus, UniProt P35439+Q00959); assay: Two-electrode voltage-clamp recordings, Xenopus laevis oocytes expressing GluN1/GluN2A; conditions: for EC50: read-out: EC50 (µM) [conf. int.]; for Emax: read-out: Maximal Degree of Modulation (% of control)
Procedure: (§1) cDNAs for rat wild type NMDAR subunits GluN1-1a (GenBank U11418, U08261; hereafter GluN1 or GluN1a), GluN1-1b (U08263, hereafter GluN1b), GluN2A (D13211), GluN2B (U11419), GluN2C (M91563), and GluN2D (L31611, modified as described in [Monyer et al., 1994]) were provided by Drs. S. Heinemann (Salk Institute), S. Nakanishi (Kyoto University), and P. Seeburg (University of Heidelberg). Site-directed mutagenesis was conducted using the QuikChange kit (Agilent Technologies, Santa Clara, CA) following the recommended protocol. DNA sequencing was used to verify all mutations. The amino acid numbering system started with the initiating methionine as residue number one. For expression in Xenopus laevis oocytes, cDNA constructs were linearized by restriction enzymes, and subsequently used to synthesize in vitro cRNAs following the manufacturer’s protocol (mMessage mMachine, Ambion, ThermoFisher Scientific, Waltham, MA).
(§2) Xenopus laevis stage VI oocytes (Ecocyte Biosciences, Austin, TX) were injected as previously described ([Hansen et al., 2013]) 2–7 days prior to recording with cRNA encoding the NMDAR subunits and stored at 15°C in media containing (in mM) 88 NaCl, 2.4 NaHCO3, 1 KCl, 0.33 Ca(NO3)2, 0.41 CaCl2, 0.82 MgSO4, 5 Tris-HCl; pH was adjusted to 7.4 with NaOH and the solution supplemented with 1 U/mL penicillin, 0.1 mg/mL gentamicin sulfate, and 1 μg/mL streptomycin. Two-electrode voltage-clamp recordings were performed at room temperature (21–23°C) using different internal solutions for voltage and current electrodes (0.3 M and 3.0 M KCl, respectively). All extracellular solutions were made from a solution containing (in mM) 90 NaCl, 1 KCl, 10 HEPES, 0.5 BaCl2, 0.01 EDTA (pH 7.4 with NaOH). Experiments were performed using an eight port Modular Valve Positioner (Hamilton Company, Reno, NV) and controlled by custom software (Easy Oocyte, Emory University, Atlanta, GA)to exchange solutions. Oocyte currents were recorded at a holding potential of −40 mV using a two-electrode voltage-clamp amplifier (OC-725B or OC-725C, Warner Instruments, Hamden, CT). […] In MTSEA experiments, fresh MTSEA solutions (0.2 mM) were prepared and utilized in less than 30 min to limit compound degradation.
(§3) Measurements are given as mean ± SEM unless otherwise indicated. The number of replicate experiments used was chosen to ensure a power level of at least 0.80 when α = 0.05 and when detecting appropriate effect sizes. EC50 and IC50 values and confidence intervals reported were calculated by averaging the log(EC50) or log(IC50) value, determining confidence intervals for mean log(EC50) or log(IC50), and converting back to units of molarity. Statistical significance evaluations (α set to 0.05) were performed using a one-way ANOVA with Dunnett’s multiple comparison test, a paired t–test, or other appropriate tests as described.

GluN1/GluN2B NMDARs = GluN1/GluN2B NMDARs (Rattus norvegicus, UniProt P35439+Q00960); assay: Two-electrode voltage-clamp recordings, Xenopus laevis oocytes expressing GluN1/GluN2B; conditions: for Emax: read-out: Maximal Degree of Modulation (% of control)
Sequence of GluN1/GluN2B NMDARs (Q00960 27-1482, other chains not shown): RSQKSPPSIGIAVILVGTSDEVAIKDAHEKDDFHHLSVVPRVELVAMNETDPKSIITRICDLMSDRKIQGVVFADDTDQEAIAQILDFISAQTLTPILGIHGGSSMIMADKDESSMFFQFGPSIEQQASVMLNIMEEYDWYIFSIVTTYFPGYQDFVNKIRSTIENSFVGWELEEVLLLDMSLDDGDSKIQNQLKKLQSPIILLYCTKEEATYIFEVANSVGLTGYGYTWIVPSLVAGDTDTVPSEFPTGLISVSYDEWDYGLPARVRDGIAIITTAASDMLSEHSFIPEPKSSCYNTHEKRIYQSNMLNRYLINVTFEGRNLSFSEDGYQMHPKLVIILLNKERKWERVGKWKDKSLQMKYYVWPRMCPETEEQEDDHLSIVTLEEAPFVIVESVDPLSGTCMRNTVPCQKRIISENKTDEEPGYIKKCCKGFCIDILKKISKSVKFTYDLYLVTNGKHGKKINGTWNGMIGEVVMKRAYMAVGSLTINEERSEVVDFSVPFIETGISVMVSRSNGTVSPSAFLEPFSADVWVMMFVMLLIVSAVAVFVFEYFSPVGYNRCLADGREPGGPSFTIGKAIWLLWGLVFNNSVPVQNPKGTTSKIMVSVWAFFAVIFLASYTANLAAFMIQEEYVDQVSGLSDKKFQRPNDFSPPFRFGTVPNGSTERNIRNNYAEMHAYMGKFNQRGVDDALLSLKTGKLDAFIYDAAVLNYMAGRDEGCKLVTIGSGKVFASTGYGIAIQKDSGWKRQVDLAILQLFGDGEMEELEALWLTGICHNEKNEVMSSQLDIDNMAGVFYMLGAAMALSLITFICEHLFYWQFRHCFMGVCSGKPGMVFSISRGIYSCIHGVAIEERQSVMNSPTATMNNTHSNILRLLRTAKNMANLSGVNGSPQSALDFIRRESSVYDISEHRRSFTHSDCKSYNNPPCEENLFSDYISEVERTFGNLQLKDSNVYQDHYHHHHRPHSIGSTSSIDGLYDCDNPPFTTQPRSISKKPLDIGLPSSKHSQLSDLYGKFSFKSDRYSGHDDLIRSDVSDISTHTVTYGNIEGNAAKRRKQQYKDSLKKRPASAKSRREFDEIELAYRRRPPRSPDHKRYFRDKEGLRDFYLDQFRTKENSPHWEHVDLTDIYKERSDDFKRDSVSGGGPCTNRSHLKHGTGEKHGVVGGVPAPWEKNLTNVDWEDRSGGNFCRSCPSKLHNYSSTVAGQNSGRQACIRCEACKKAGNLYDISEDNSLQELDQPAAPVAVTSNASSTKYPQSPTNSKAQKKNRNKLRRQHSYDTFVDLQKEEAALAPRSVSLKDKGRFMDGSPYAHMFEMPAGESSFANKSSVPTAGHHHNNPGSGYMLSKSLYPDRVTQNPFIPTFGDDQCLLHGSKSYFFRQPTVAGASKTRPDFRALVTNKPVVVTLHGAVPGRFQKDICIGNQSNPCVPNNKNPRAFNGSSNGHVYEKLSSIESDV
Procedure: as §1, §2, §3

GluN1/GluN2C NMDARs = GluN1/GluN2C NMDARs (Rattus norvegicus, UniProt P35439+Q00961); assay: Two-electrode voltage-clamp recordings, Xenopus laevis oocytes expressing GluN1/GluN2C; conditions: for Modulation by 10 µM (% of control): 10 µM modulator; for Emax: read-out: Maximal Degree of Modulation (% of control)
Sequence of GluN1/GluN2C NMDARs (Q00961 20-1237, other chains not shown): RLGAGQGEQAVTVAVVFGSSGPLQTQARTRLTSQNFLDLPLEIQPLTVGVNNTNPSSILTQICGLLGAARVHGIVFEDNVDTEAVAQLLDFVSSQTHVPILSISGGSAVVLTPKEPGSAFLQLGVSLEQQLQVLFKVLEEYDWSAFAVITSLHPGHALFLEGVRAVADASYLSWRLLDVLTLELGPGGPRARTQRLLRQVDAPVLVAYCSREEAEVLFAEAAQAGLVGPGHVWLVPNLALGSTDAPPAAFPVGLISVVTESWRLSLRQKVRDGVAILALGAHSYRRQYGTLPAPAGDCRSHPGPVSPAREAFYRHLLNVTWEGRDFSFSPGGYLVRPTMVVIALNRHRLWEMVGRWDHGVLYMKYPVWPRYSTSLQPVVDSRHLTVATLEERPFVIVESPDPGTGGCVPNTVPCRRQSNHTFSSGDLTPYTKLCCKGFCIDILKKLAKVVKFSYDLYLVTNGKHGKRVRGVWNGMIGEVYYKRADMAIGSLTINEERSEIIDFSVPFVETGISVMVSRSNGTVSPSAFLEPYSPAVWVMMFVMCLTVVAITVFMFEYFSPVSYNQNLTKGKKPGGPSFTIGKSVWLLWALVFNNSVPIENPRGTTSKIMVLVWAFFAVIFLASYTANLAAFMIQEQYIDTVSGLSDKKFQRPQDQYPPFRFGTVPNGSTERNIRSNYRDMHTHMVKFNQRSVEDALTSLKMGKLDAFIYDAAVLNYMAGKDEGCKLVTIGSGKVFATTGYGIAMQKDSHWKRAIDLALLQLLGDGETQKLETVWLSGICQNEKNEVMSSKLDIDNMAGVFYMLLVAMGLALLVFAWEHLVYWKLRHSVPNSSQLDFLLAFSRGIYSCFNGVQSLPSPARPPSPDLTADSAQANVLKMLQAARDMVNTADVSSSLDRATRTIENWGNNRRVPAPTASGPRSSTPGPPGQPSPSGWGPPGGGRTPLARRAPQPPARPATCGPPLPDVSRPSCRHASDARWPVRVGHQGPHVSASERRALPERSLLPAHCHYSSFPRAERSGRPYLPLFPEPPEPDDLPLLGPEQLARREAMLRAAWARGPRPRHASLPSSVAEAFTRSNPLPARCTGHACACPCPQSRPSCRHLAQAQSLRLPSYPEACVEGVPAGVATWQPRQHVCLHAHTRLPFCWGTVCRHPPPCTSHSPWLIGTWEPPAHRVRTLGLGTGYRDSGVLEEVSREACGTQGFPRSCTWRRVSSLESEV
Procedure: as §1, §2, §3

GluN1/GluN2D NMDARs = GluN1/GluN2D NMDARs (Rattus norvegicus, UniProt P35439+Q62645); assay: Whole cell patch-clamp recordings, HEK293 cells expressing GluN1/GluN2D; conditions: for kon / koff: HEK293; for kon: read-out: association rate kon; for koff: read-out: dissociation rate koff; for Kd: calculated from association and dissociation rates, HEK cells, read-out: kinetically-determined affinity constant Kd
Sequence of GluN1/GluN2D NMDARs (Q62645 28-1323, other chains not shown): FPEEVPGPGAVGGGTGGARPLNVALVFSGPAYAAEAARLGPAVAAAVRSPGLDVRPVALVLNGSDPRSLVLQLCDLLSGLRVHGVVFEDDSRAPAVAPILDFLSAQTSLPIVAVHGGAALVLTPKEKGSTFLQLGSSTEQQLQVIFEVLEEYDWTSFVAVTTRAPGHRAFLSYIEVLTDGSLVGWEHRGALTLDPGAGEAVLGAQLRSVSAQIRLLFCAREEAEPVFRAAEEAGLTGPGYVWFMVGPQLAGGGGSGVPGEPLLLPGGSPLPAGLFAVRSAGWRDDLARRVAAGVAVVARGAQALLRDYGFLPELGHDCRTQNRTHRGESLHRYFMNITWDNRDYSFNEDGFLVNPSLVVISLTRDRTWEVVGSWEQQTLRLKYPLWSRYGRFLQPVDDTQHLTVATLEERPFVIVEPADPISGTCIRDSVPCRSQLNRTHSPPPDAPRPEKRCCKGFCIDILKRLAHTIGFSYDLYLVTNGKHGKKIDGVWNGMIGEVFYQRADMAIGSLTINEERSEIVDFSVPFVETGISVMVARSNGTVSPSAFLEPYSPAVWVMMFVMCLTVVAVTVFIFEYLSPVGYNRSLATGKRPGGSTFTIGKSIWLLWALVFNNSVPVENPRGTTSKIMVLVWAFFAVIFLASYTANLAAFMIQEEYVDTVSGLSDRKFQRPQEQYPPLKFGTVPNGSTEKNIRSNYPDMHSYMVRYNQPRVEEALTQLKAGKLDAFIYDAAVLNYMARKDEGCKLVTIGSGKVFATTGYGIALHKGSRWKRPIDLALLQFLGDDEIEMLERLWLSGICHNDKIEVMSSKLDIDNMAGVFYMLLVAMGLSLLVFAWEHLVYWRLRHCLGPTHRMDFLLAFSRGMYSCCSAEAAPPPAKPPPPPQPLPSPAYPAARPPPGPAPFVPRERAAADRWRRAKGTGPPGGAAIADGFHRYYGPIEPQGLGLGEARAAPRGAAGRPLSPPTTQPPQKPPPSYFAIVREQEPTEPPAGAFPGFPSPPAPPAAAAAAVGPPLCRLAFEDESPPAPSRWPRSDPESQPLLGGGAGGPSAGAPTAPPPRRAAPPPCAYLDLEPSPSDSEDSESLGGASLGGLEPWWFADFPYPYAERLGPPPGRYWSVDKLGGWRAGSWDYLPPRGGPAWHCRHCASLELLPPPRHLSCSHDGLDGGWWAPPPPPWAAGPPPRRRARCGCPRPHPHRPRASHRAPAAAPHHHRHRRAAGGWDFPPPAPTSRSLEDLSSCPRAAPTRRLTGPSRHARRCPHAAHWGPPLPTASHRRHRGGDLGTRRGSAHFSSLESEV
Procedure: We studied NMDARs expressed in HEK293 cells to investigate the time course of modulator action. […] These modulators were tested on GluN1/GluN2A and GluN1/GluN2D to see whether there were differences in modulation given the distinct properties of these NMDAR subtypes. […] The time-course of modulator binding of EU1794-2, EU1794-4 and EU1794-27 was also determined for GluN1/GluN2A (Figure 4C,D).
as §1
HEK293 cells (CRL-1573, ATCC, Manassas, VA) were maintained in a tissue culture room solely reserved for their culturing and transfected using a CaPO4 protocol to express the diheteromeric NMDARs as previously described ([Hansen et al., 2013]). Cell lines were obtained directly from the supplier, were expanded, frozen and kept in liquid nitrogen in a dewar. Mycoplasma testing was not performed. cDNA ratios for transfection were 1:1:1 (GluN2D) or 1:1:5 (GluN2A) for GluN1:GluN2:GFP.

[1] = glutamate/glycine 100/30 µM, no second modulator (+EU1794-27 0 µM), read-out: IC50 (µM) [conf. int.]
[2] = saturating glutamate/glycine 100/30 µM, mean [95% CI], - = not fit, response at 30 µM differed by no more than 15% from control
[3] = saturating glutamate/glycine 100/30 µM, mean ± SEM
[4] = sub-saturating glutamate/glycine 1/0.3 µM
[5] = saturating glutamate/glycine 100/30 µM, mean [95% CI], - = not fit, response at 30 µM differed by no more than 15% from control, read-out: EC50 (µM) [conf. int.]
[6] = sub-saturating glutamate/glycine 1/0.3 µM, read-out: EC50 (µM) [conf. int.]
[7] = Glu/Gly 1/0.3 µM (sub-saturating)
[8] = saturating glutamate/glycine 100/30 µM, mean [95% CI], read-out: EC50 (µM) [conf. int.]
[9] = sub-saturating glutamate/glycine 2/0.6 µM
[10] = +EU1794-2 1 µM, glutamate/glycine 100/30 µM, read-out: EU1794-27 EC50 (µM) [conf. int.]
[11] = +EU1794-2 3 µM, glutamate/glycine 100/30 µM, read-out: EU1794-27 EC50 (µM) [conf. int.]
[12] = concentration dependence of linear component of time course

Compound	EC50 (GluN1/GluN2A NMDARs; [2])	Emax (GluN1/GluN2A NMDARs; [3])	EC50 (GluN1/GluN2B NMDARs; [5])	Emax (GluN1/GluN2B NMDARs; [3])	EC50 (GluN1/GluN2B NMDARs; [6])	Emax (GluN1/GluN2B NMDARs; [4])	Modulation by 10 µM (% of control) (GluN1/GluN2C NMDARs; [7])	Modulation by 10 µM (% of control) (GluN1/GluN2C NMDARs; Glu/Gly 100/30 µM)	EC50 (GluN1/GluN2C NMDARs; [8])	Emax (GluN1/GluN2C NMDARs; [3])	EC50 (GluN1/GluN2C NMDARs; [6])	Emax (GluN1/GluN2C NMDARs; [4])	kon (GluN1/GluN2D NMDARs)	koff (GluN1/GluN2D NMDARs)	Kd (GluN1/GluN2D NMDARs)	other results
CCOC(=O)c1c(NC(=O)CC2SC(=N)NC2=O)sc2c1CCCC2 (centres unmarked) [EU1794-4, ethyl 2-(2-(2-imino-4-oxothiazolidin-5-yl)acetamido)-4,5,6,7-tetrahydrobenzo[b]thiophene-3-carboxylate]	2.2 µM	32%	2.6 µM	67%	4.3 µM	210%	140 ± 12 % of control	54 ± 1.6 % of control	0.42 µM	52%	15 µM	220%	1.12e+06 M⁻¹ s⁻¹	4.66 s⁻¹	4.2 µM and 4.16 µM	Fold Difference (glutamate EC50) (GluN1/GluN2A NMDARs; control vs 10 µM EU1794-4): 2.4^†; Fold Difference (glycine EC50) (GluN1/GluN2A NMDARs; control vs 10 µM EU1794-4): 2.8^†; IC50 (GluN1/GluN2A NMDARs; [1]): 2.2 µM; EC50 (GluN1/GluN2A NMDARs; [4]): 3.9 µM; Emax (GluN1/GluN2A NMDARs; [4]): 500%; Fold Difference (glutamate EC50) (GluN1/GluN2B NMDARs; control vs 10 µM EU1794-4): 2.0^†; Fold Difference (glycine EC50) (GluN1/GluN2B NMDARs; control vs 10 µM EU1794-4): 3.3^†; IC50 (GluN1/GluN2B NMDARs; read-out: IC50 (µM) [conf. int.]): 2.6 µM; Modulation by 10 µM (% of control) (GluN1/GluN2C NMDARs; Glu/Gly 0.3/0.09 µM (sub-saturating)): 660 ± 110 % of control; Fold Difference (glutamate EC50) (GluN1/GluN2C NMDARs; control vs 10 µM EU1794-4): 3.2^†; Fold Difference (glycine EC50) (GluN1/GluN2C NMDARs; control vs 10 µM EU1794-4): 4.6^†; IC50 (GluN1/GluN2C NMDARs; [1]): 0.42 µM
CC(C)(C)OC(=O)c1c(NC(=O)CC2SC(=N)NC2=O)sc2c1CCCC2 (centres unmarked) [EU1794-27, tert-butyl 2-(2-(2-imino-4-oxothiazolidin-5-yl)acetamido)-4,5,6,7-tetrahydrobenzo[b]thiophene-3-carboxylate]	7.4 µM	52%	1.4 µM	130%	6.3 µM	400%	480 ± 31 % of control	190 ± 10 % of control	2.8 µM	230%	5 µM	680%	187000 M⁻¹ s⁻¹	0.802 s⁻¹	4.3 µM	Fold Difference (glutamate EC50) (GluN1/GluN2A NMDARs; control vs 10 µM EU1794-27): 2.3^†; Fold Difference (glycine EC50) (GluN1/GluN2A NMDARs; control vs 10 µM EU1794-27): 1.6; EC50 (GluN1/GluN2A NMDARs; [9]): 8.1 µM; Emax (GluN1/GluN2A NMDARs; [9]): 340%; EC50 (GluN1/GluN2B NMDARs; [10]): 6 µM; EC50 (GluN1/GluN2B NMDARs; [11]): 8.4 µM; Fold Difference (glutamate EC50) (GluN1/GluN2B NMDARs; control vs 10 µM EU1794-27): 2.0^†; Fold Difference (glycine EC50) (GluN1/GluN2B NMDARs; control vs 10 µM EU1794-27): 2.9^†; EC50 (GluN1/GluN2C NMDARs; [10]): 7.3 µM; EC50 (GluN1/GluN2C NMDARs; [11]): 7.3 µM; Fold Difference (glutamate EC50) (GluN1/GluN2C NMDARs; control vs 10 µM EU1794-27): 3.3^†; Fold Difference (glycine EC50) (GluN1/GluN2C NMDARs; control vs 10 µM EU1794-27): 2.4; association linear component slope mon (GluN1/GluN2D NMDARs; [12]): −0.98 pA/(ms*µM); dissociation linear component slope moff (GluN1/GluN2D NMDARs; [12]): 0.62 pA/(ms*µM)
